Entries after “also recorded” stand apart in the source; their conditions may differ. Where a SMILES comes first, the peptide text is derived from it. Bridges are numbered along the chain shown (N, C = ends). [ ]: non-standard residue; d: D form. AEEA = NCCOCCOCC(=O)O
Experiments:
[1] = target: T1, fibrin clot (Homo sapiens, UniProt P02671+P02675+P02679); experiment: Plasma matrix interference on probe binding to fibrin clots; conditions: 20 µCi probe, 0.1 M PBS diluted 50% with fresh frozen human plasma, 0.5 mL, 37 °C, 30 min, triplicate
T1 sequence (P02671 20-644 isoform P02671-2 limits assumed): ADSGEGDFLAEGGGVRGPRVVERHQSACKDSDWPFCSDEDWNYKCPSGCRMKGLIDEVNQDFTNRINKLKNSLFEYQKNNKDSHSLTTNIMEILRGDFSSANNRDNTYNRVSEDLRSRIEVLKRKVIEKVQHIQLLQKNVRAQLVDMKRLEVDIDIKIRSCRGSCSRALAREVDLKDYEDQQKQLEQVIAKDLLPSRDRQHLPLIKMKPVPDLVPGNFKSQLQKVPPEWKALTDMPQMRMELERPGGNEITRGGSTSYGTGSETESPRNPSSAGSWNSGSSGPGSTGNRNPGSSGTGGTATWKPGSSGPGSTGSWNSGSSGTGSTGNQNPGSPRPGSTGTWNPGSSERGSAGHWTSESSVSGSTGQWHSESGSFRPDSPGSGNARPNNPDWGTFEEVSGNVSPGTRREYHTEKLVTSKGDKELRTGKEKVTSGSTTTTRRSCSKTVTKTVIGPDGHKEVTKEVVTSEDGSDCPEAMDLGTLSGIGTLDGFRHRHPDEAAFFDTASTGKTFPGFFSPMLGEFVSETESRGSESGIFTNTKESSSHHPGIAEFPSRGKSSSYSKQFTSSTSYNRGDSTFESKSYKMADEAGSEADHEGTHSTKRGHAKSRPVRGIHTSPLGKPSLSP
T1 sequence (P02675 45-491 limits assumed): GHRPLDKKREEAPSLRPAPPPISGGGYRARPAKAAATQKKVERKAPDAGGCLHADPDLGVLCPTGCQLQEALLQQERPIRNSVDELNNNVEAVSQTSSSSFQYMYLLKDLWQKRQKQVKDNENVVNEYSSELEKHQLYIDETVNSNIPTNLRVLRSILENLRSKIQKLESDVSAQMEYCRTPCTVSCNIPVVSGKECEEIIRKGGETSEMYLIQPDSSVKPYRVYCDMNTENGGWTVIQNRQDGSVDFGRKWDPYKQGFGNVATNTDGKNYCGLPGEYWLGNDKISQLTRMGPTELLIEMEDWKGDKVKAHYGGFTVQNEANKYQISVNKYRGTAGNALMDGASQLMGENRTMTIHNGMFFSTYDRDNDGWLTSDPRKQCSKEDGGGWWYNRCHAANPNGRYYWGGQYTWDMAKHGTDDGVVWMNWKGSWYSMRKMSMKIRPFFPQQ
T1 sequence (P02679 27-437 isoform P02679-2 limits assumed): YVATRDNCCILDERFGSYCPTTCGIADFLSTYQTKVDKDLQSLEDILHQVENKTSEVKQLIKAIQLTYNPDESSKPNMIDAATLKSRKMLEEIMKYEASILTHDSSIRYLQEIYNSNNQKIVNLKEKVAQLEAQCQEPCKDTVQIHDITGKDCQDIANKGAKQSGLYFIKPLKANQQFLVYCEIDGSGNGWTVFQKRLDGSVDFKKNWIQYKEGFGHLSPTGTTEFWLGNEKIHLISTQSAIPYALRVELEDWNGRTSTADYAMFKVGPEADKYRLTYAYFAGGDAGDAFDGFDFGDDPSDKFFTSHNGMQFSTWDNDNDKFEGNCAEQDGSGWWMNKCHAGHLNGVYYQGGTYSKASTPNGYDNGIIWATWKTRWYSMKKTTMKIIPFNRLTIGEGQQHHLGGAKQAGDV

[2] = Organ biodistribution in mice at 180 min; format: in vivo; conditions: 180 min after tail vein injection, n=3/treatment

For CC[C@H](C)[C@H](NC(=O)[C@H](Cc1c[nH]c2ccccc12)NC(=O)[C@@H]1CSSC[C@H](NC(=O)[C@H](CCC(=O)O)NC(=O)[C@H](Cc2c[nH]c3ccccc23)NC(=O)[C@H](CCC(N)=O)NC(=O)COCCOCCNC(=O)[C@H](CCC(=O)O)NC(=O)[C@H](Cc2c[nH]cn2)NC(=O)[C@@H](N)Cc2c[nH]cn2)C(=O)N2CCC[C@H]2C(=O)N[C@@H](Cc2ccc(O)cc2)C(=O)NCC(=O)N[C@@H](CC(C)C)C(=O)N1)C(=O)N[C@@H](CCC(N)=O)C(=O)O [^99mTc-F1A, metal not drawn] (H-HHE[AEEA]QWECPYGLCWIQ-OH; disulfide 8-13), the “binding to fibrin clots in the presence of human plasma compared with PBS alone” value [1] was “interfered; also recorded: dramatically reduced; also recorded: severely compromised” and the “organ accumulation (lung, liver, spleen)” value [2] was “negligible liver or spleen biodistribution; also recorded: neither probe accumulating substantially in the lung, liver or spleen”.

— PMC5817118 (Theranostics, 2018)
